# No end group written: not given here.
# Columns and labels:
# [1] = tested on: tumor infiltrating lymphocytes; assay: Analysis of tumor infiltrating lymphocytes from peptide-vaccinated mice; format: in vivo, Balb/c mice
# Procedure: CD4 (20A) and CD8 (20B) T cells were determined by flow cytometry (gated on CD45+ cells). Foxp3+CD25+CD4 Tregs ([…]) were determined by intracellular staining (gated on CD45+CD4+ cells). […] Group means were calculated and compared with Anova
# FIGS. 21A and 21B show Analysis of tumor infiltrating lymphocytes from peptide-vaccinated mice. […] Tumor infiltrating cells were isolated from combined tumor tissue from […] (group A to F) of treated mice in first in vivo experiment. Tumor infiltrating cells were isolated from each mouse in group 5 and 6 from second in vivo experiment. CD4 and CD8 cells were determined by flow cytometry (gated on CD45+ infiltrating cells). FoxP3 expression on CD25+CD4+ T cells were determined by intracellular staining (gated on CD45+CD4+ cells). […] CD4 and CD8 cells were determined by flow cytometry (gated on CD45+ infiltrating cells). FoxP3 expression on CD25+CD4+ T cells were determined by intracellular staining (gated on CD45+CD4+ cells). Group means were calculated and compared with Anova. Error bars denote s.e.m.
# On the other hand, high numbers of T cells at the tumor site, especially CD8 T cells, is a key denominator for overall survival (OS) in cancer patients. […] Therefore, it was determined CD8/Treg ratio in TIC in tumor-bearing mice vaccinated with combination peptides or control peptide (described above). […] The cells were then incubated with mAbs to the cell-surface markers (CD45, CD4, CD8, CD25 Then the cells were fixed and permeabilized using Cytofix/Cytoperm solution (ebioscience) for 60 min at 4° C., followed by staining for FoxP3 for 30 min at 4° C. 80,000-100,000 live cell events were acquired on a FACSCantoII (BD) and analyzed using FlowJo software (Tree Star, Inc.). To differentiate TILs from tumor cells, the cells were first gated on CD45^+ cells. Then the CD4^+ (FIG. 20A) and CD8^+ (FIG. 20B) cells were analyzed. Tregs were represented by CD4^+CD25^+FoxP3^+ cells (FIG. 20C). GraphPad software (GraphPad Prism Software, Inc., San Diego, Calif., USA) was utilized for statistical analysis. Group means were calculated and compared with Anova. […]
# [2] = biological target: T1, extracellular domain of human PD-L1 (hPD-L1) (Homo sapiens, UniProt Q9NZQ7); assay: BIACORE SPR binding to immobilized rhPD-L1; conditions: 1 μM peptide
# T1 construct: Recombinant hPD-L1 ectodomain was immobilized onto the gold surface of a CM5 sensor chip
# T1 sequence (Q9NZQ7 19-238 limits assumed): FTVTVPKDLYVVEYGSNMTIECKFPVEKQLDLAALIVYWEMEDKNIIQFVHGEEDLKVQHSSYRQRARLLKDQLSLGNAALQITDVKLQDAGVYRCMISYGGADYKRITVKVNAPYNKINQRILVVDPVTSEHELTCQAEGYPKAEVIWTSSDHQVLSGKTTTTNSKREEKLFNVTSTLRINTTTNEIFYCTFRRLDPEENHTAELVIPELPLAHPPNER
# Procedure: To test the activity of all the selected peptides, surface plasmon resonance (SPR) spectroscopy (BIACORE™ T200, at […]) was used to measure their binding affinities to the extracellular domain of human PD-L1 (hPD-L1). Recombinant hPD-L1 ectodomain was immobilized onto the gold surface of a CM5 sensor chip by direct amine coupling.
# (§1) 1 μM BSA was used as the negative control. The chip was regenerated by 10 mM Glycine-HCl, pH 2.5(FIG. 3E).
# (§2) 1 μM of various PD-1 peptides were injected over the chip for 1 min at 10 μl/min followed by 1 min dissociation and then 1 min regeneration with 10 mM Glycine-HCl, pH 2.5 for each run.
# [3] = tested on: CD4+CD25+FoxP3+ Tregs; assay: Immune-profiling of T cells in spleen and tumor by flow cytometry; format: in vivo, Balb/c mice
# Procedure: CD4 and CD8 cells were determined by flow cytometry (gated on CD45+CD3+ cells). Foxp3+CD25+CD4 T regulatory cells were determined by intracellular staining. All CD4 and CD8 T cells were gated on CD45+CD3+ cells. Tregs were gated on CD45+CD3+CD4+ cells. Group A=control peptide, Group B=32-50; Group C=45-64; Group D=73-90; Group E=92-110; Group F=α-mouse PD-1 (positive control).
# The tumor and tumor draining lymph nodes were collected for subsequent FACS analysis to study the immune response in mice. Cells suspensions were prepared from tissues either by mechanistic dissociation or by enzymatic digestion. The stained cells were analyzed with a LSR II flow cytometer (BD Biosciences) equipped with 3 excitation lasers at wavelengths 405, 488 and 633 nm. CD8+ T cells and CD4+CD25+ T cells from tumor leucocytes were purified either on a MACS column or FACSAria.
# Flow cytometric analysis was performed to evaluate the expression of surface markers (CD45, CD3, CD4, CD8 and CD25) and transcription factor FoxP3 in splenocytes and tumor infiltrating T cells. Briefly, spleens were removed from mice and pressed through cell strainers, followed by a short incubation with red blood cells lysis buffer to lyse the red blood cells. Cells were then collected, washed, and resuspended in staining buffer (1% BSA in PBS). Similarly, tumors were removed from mice and pressed through cell strainers, followed by one wash with 37% percoll. The tumor cells were then washed with PBS and resuspended in staining buffer. The splenocytes and tumor cells were incubated with mAbs to the cell-surface markers for 30 min at 4° C. After washing twice with staining buffer, cells were fixed and permeabilized using Cytofix/Cytoperm solution for 60 min at 4° C. Cells were stained for FoxP3 for 30 min at 4° C. 80,000-100,000 live cell events were acquired on a FACSCanto (BD) and analyzed using FlowJo software (Tree Star, Inc.). To differentiate infiltrating cells from tumor cells, the tumor cells were first gated on CD45+ cells. Then the CD3+CD4+ and CD3+CD8+ cells were analyzed. Tregs were represented by CD4+CD25+FoxP3+ cells. […] Group E had the lowest Treg.
# [4] = tested on: Nivolumab; assay: BIACORE SPR binding to immobilized Nivolumab; conditions: 1 μM peptide
# Procedure: as §1, §2
substance,measurement,setting,value
KLLSLIKGVIVHRLEGVE-GPSL-GAISLAPKAQIKESLRAEL-CONH2 (KLLSLIKGVIVHRLEGVEGPSLGAISLAPKAQIKESLRAEL-NH2) [MVF-PD-1 (92-110)],"CD4 T cells or Treg cells in TILs, differences among groups",[1]; Anova,no significant differences
same,CD8+ T cells in TILs compared to control peptide-vaccinated group,"[1]; gated on CD45+ cells, Anova",significantly higher
same,CD8/Treg ratio in TILs compared to control peptide-vaccinated group,"[1]; mouse, in vivo",increased
same,binding to immobilized rhPD-L1 (in words),[2],bind
same,SPR response of peptide binding to immobilized rhPD-L1,[2]; 1 min at 10 μl/min,around 110 RU
same,Treg population in spleen compared to Group A (negative control),"[3]; splenocytes, FIG. 10A",increased Treg population
same,Tregs in tumor,"[3]; tumor infiltrating cells, FIG. 10B",lowest Treg
same,binding to immobilized Nivolumab (in words),[4],bind
same,SPR response of peptide binding to immobilized Nivolumab,[4]; 1 min at 10 μl/min,970 RU

# From patent US11684660B2, “Human PD1 peptide vaccines and uses thereof” (OHIO STATE INNOVATION FOUNDATION, priority 2017, dated 2023)
